Patent US20040006236A1, “Diaminopropionic acid derivatives” (priority 1999, published 2004)
pIC50: −log10 of the molar value. Structures can show the parent of a compound that is named as a salt.

biological target: T1, ICAM-1 binding to immobilized Mac-1 (Homo sapiens, UniProt P05107+P11215); assay: Mac-1/ICAM-1 screening assay (solid-phase ELISA); conditions: Mac-1/ICAM-1 Protein-Protein Assay IC50
T1 construct: made in house; host or cells: transfected 293 cells (Mac-1)
Method in brief: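 Competitive solid-phase ELISA: membrane Mac-1 from transfected 293 cells coated at 3 μg/mL in 20 mM Hepes pH 7.2/0.14 M NaCl/1 mM MnCl2; compounds (0.12 nM-20 μM, 1:4 series) plus 5dICAM-Ig (40 μg/mL, added) 2 h at 37° C. Bound ICAM-Ig detected with HRP anti-human IgG Fc, TMB, A450; IC50 reported.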

T1 sequence (P05107 23-769, other chains not shown): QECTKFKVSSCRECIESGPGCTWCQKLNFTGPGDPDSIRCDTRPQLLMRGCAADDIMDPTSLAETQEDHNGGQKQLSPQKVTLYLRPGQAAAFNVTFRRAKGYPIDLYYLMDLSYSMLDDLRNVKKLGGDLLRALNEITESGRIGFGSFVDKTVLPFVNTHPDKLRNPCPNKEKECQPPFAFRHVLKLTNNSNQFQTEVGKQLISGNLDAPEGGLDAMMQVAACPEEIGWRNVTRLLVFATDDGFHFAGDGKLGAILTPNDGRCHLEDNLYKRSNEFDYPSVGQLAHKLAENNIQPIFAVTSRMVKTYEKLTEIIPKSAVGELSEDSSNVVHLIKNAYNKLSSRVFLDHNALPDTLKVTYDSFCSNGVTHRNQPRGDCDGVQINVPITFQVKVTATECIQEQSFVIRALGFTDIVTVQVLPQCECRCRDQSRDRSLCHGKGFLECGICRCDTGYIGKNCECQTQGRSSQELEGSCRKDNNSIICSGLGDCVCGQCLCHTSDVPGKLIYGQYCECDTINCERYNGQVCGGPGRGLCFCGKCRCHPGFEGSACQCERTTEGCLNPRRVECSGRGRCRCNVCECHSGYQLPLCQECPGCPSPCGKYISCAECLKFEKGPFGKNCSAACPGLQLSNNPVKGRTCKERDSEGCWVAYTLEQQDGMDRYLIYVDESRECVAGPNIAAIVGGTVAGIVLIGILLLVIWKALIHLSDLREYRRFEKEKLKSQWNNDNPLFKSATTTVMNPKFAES

SMILES | pIC50
O=C(Cc1ccc([N+](=O)[O-])cc1[N+](=O)[O-])NC[C@H](NC(=O)c1ccc(C(=O)NCc2cccc(O)c2)cc1Cl)C(=O)O [Example 83] | 7.24
O=C(NCc1cccc(O)c1)c1ccc(C(=O)N[C@@H](CNC(=O)c2cc([N+](=O)[O-])cc([N+](=O)[O-])c2)C(=O)O)c(Cl)c1 [Example 129] | 7.43

same assay, conditions: read-out: Mac-1/ICAM-1 Protein-Protein Assay IC50

SMILES | pIC50
O=C(Cc1cccc(C(F)(F)F)c1)NC[C@H](NC(=O)c1ccc(C(=O)NCc2cccc(O)c2)cc1Cl)C(=O)O [Example 82] | 7.21
O=C(Cc1ccc([N+](=O)[O-])cc1)NC[C@H](NC(=O)c1ccc(C(=O)NCc2cccc(O)c2)cc1Cl)C(=O)O [Example 81] | 7.24
CC(=O)NC[C@H](NC(=O)c1ccc(C(=O)NCc2cccc(O)c2)cc1Cl)C(=O)O [Example 193] | 7.31
N[C@@H](Cc1c[nH]c2ccccc12)C(=O)NC[C@H](NC(=O)c1ccc(C(=O)NCc2cccc(O)c2)cc1Cl)C(=O)O [Example 201] | 7.31
O=C(CSc1ncccn1)NC[C@H](NC(=O)c1ccc(C(=O)NCc2cccc(O)c2)cc1Cl)C(=O)O [Example 91] | 6.76
O=C(NC[C@H](NC(=O)c1c(Cl)cccc1Cl)C(=O)O)c1ccc(Br)s1 [Example 223] | 7.09
O=C(CC1c2ccccc2-c2ccccc21)NC[C@H](NC(=O)c1ccc(C(=O)NCc2cccc(O)c2)cc1Cl)C(=O)O [Example 88] | 6.56
O=C(NC[C@H](NC(=O)c1c(F)cccc1Cl)C(=O)O)c1ccc(Br)s1 [Example 224] | 6.42
Cc1ccc(C(=O)NC[C@H](NC(=O)c2ccc(C(=O)NCc3cccc4[nH]ccc34)cc2Cl)C(=O)O)s1 [Example 317] | 7.44
O=C(NCc1cccc(O)c1)c1ccc(C(=O)N[C@@H](CNC(=O)c2ccc3c(c2)S(=O)(=O)c2ccccc2C3=O)C(=O)O)c(Cl)c1 [Example 192] | 7.40
O=C(CC1CCCCC1)NC[C@H](NC(=O)c1ccc(C(=O)NCc2cccc(O)c2)cc1Cl)C(=O)O [Example 78] | 7.03
COc1c(C(=O)NC[C@H](NC(=O)c2ccc(C(=O)NCc3cccc(O)c3)cc2Cl)C(=O)O)csc1Cl [Example 258, N-[2-chloro-4-[[[(3-hydroxyphenyl)methyl]amino]carbonyl]benzoyl]-3-(5-chloro-4-methoxythiophene-3-carbonyl)amino-L-alanine] | 7.59
NC1(C(=O)NC[C@H](NC(=O)c2ccc(C(=O)NCc3cccc(O)c3)cc2Cl)C(=O)O)CCCC1 [Example 263] | 7.57
N[C@H]1CC[C@@H](C(=O)NC[C@H](NC(=O)c2ccc(C(=O)NCc3cccc(O)c3)cc2Cl)C(=O)O)CC1 [Example 264] | 7.60
C[C@@H](NC(=O)c1ccc(C(=O)N[C@@H](CNC(=O)c2cccs2)C(=O)O)c(Br)c1)c1cccc2ccccc12 [Example 332] | 7.17
O=C(NCc1cccc2c1CCN2)c1ccc(C(=O)N[C@@H](CNC(=O)c2cccs2)C(=O)O)c(Cl)c1 [Example 318, 3-(thiophene-2-carbonyl)amino-N-[2-chloro-4-[[(2,3-dihydro-1H-indol-4-ylmethyl)amino]carbonyl]benzoyl]-L-alanine] | 7.01
Nc1cccc(CNC(=O)c2ccc(C(=O)N[C@@H](CNC(=O)c3cccs3)C(=O)O)c(Br)c2)c1 [Example 334, N-[4-[[[(3-aminophenyl)methyl]amino]carbonyl]-2-bromobenzoyl]-3-(thiophene-2-carbonyl)amino-L-alanine] | 7.15
CC(C)(C)C(=O)NC[C@H](NC(=O)c1ccc(C(=O)NCc2cccc(O)c2)cc1Cl)C(=O)O [Example 92] | 7.32
O=C(NCc1cccc(O)c1)c1ccc(C(=O)N[C@@H](CNC(=O)c2cnc3ccccc3c2)C(=O)O)c(Cl)c1 [Example 183] | 6.65
O=C(O)CCCC(=O)NC[C@H](NC(=O)c1ccc(C(=O)NCc2cccc(O)c2)cc1Cl)C(=O)O [Example 298] | 6.53
N[C@@H](CCC(=O)NC[C@H](NC(=O)c1ccc(C(=O)NCc2cccc(O)c2)cc1Cl)C(=O)O)C(=O)O [Example 202] | 7.43
O=C(NCc1cccc(O)c1)c1ccc(C(=O)N[C@@H](CNC(=O)C(c2ccccc2)c2ccccc2)C(=O)O)c(Cl)c1 [Example 86] | 6.75
O=C(O)c1cccc(C(=O)NC[C@H](NC(=O)c2ccc(C(=O)NCc3cccc(O)c3)cc2Cl)C(=O)O)c1 [Example 297] | 7.09
O=C(NCc1cccc(O)c1)c1ccc(C(=O)N[C@@H](CNC(=O)c2cnccn2)C(=O)O)c(Cl)c1 [Example 170] | 6.94

SMILES | pIC50
O=C(NCc1cccc2[nH]ccc12)c1ccc(C(=O)N[C@@H](CNC(=O)c2ccoc2)C(=O)O)c(Cl)c1 [Example 316] | 7.62
O=C(Cc1ccc2ccccc2c1)NC[C@H](NC(=O)c1ccc(C(=O)NCc2cccc(O)c2)cc1Cl)C(=O)O [Example 87] | 7.06
O=C(Cc1ccccc1)NC[C@H](NC(=O)c1ccc(C(=O)NCc2cccc(O)c2)cc1Cl)C(=O)O [Example 79] | 7.13
O=C(Cc1cccs1)NC[C@H](NC(=O)c1ccc(C(=O)NCc2cccc(O)c2)cc1Cl)C(=O)O [Example 84] | 7.22
O=C(CCc1cccc(O)c1)c1ccc(C(=O)N[C@@H](CNC(=O)c2cccs2)C(=O)O)c(Cl)c1 [Example 319, N-[2-chloro-4-[1-oxo-3-(3-hydroxyphenyl)propyl]benzoyl]-3-(thiophene-2-carbonyl)amino-L-alanine] | 7.37
Cc1nnsc1C(=O)NC[C@H](NC(=O)c1ccc(C(=O)NCc2cccc(O)c2)cc1Cl)C(=O)O [Example 255] | 7.39
NCCCC[C@H](N)C(=O)NC[C@H](NC(=O)c1ccc(C(=O)NCc2cccc(O)c2)cc1Cl)C(=O)O [Example 198] | 7.32
Nc1cccn(CC(=O)NC[C@H](NC(=O)c2ccc(C(=O)NCc3cccc(O)c3)cc2Cl)C(=O)O)c1=O [Example 266] | 6.51
CSCC[C@H](N)C(=O)NC[C@H](NC(=O)c1ccc(C(=O)NCc2cccc(O)c2)cc1Cl)C(=O)O [Example 197] | 7.42
N[C@@H](Cc1ccccc1)C(=O)NC[C@H](NC(=O)c1ccc(C(=O)NCc2cccc(O)c2)cc1Cl)C(=O)O [Example 199] | 7.44
O=C(NCc1cccc2[nH]ccc12)c1ccc(C(=O)N[C@@H](CNC(=O)c2cccs2)C(=O)O)c(Br)c1 [Example 329] | 7.60
O=C(NCc1cccc2[nH]cnc12)c1ccc(C(=O)N[C@@H](CNC(=O)c2cccs2)C(=O)O)c(Cl)c1 [Example 322] | 7.29
O=C(NCc1cccc(O)c1)c1ccc(C(=O)N[C@@H](CNC(=O)c2cc(=O)c3ccccc3o2)C(=O)O)c(Cl)c1 [Example 187] | 7.25
O=C(CCc1ccccc1)NC[C@H](NC(=O)c1ccc(C(=O)NCc2cccc(O)c2)cc1Cl)C(=O)O [Example 94] | 7.38
O=C(NC[C@H](NC(=O)c1ccc(-n2nnnc2NCc2cccc(O)c2)cc1Cl)C(=O)O)c1cccs1 [Example 321] | 7.12
O=C(NCc1cccc(O)c1)c1ccc(C(=O)N[C@@H](CNC(=O)C23CC4CC(CC(C4)C2)C3)C(=O)O)c(Cl)c1 [Example 93] | 7.24
O=C(NCc1cccc(O)c1)c1ccc(C(=O)N[C@@H](CNC(=O)c2cccs2)C(=O)O)c(Cl)c1 [Example 305, N-[2-chloro-4-[[[(3-hydroxyphenyl)methyl]amino]carbonyl]benzoyl]-3-(thiophene-2-carbonyl)amino-L-alanine, sodium salt] | 7.72
NC(=O)C[C@H](N)C(=O)NC[C@H](NC(=O)c1ccc(C(=O)NCc2cccc(O)c2)cc1Cl)C(=O)O [Example 200] | 7.48
CC(C)C(=O)NC[C@H](NC(=O)c1ccc(C(=O)NCc2cccc(O)c2)cc1Cl)C(=O)O [Example 194] | 7.44
CC(C)CC(=O)NC[C@H](NC(=O)c1ccc(C(=O)NCc2cccc(O)c2)cc1Cl)C(=O)O [Example 195] | 7.33
O=C(NC[C@H](NC(=O)c1c(Cl)cccc1Cl)C(=O)O)c1ccccc1 [Example 219] | 6.50
COc1ccc(CC(=O)NC[C@H](NC(=O)c2ccc(C(=O)NCc3cccc(O)c3)cc2Cl)C(=O)O)cc1 [Example 80] | 6.87
O=C(NC[C@H](NC(=O)c1c(F)cccc1Cl)C(=O)O)c1ccc2[nH]nnc2c1 [Example 226] | 6.56
O=C(C[n+]1csc2ccccc21)NC[C@H](NC(=O)c1ccc(C(=O)NCc2cccc(O)c2)cc1Cl)C(=O)O [Example 89] | 6.33

system: cell-surface Mac-1 adhesion to immobilized fibrinogen (HL-60 cells); assay: Mac-1/Fibrinogen cell-based screening assay; parameters: species or system human; conditions: Homo sapiens, HL-60, HL-60 cells; read-out: Mac-1/Fgn Cell based Assay IC50
Description: Cellular Mac-1/Fibrinogen antagonist activity, defined as the ability to inhibit cell-surface Mac-1 adhesion to immobilized fibrinogen, was quantitated by a cell based assay. Human fibrinogen was coated onto 96 well microtiter plates (1 μg in 100 μL TBS) overnight at 4° C. The plates were then blocked with 150 μL of 10% polyvinyl pyrrolidone (PVP) in TBS for 1 h at 37° C. Plates were washed 3 times (150 μL each) with TBS. […] A ten-fold excess of volume of the same buffer was added and cells were centrifuged. The medium was decanted and cells were resuspended at a concentration of 2×10^6 cells/mL in RPMI/0.05% BSA/0.2 mM MnCl2. Stock solutions (10 mM in DMSO) of test compounds were diluted to 2.5 mM with DMSO. […] Each sample was further diluted 50-fold with RPMI/0.05% BSA/0.2 mM MnCl2. Equal volumes of labeled cells were then added to assay tubes containing diluted compounds. […] Cells were incubated for 10 min at 37° C. with gentle shaking, then dispensed (100 μL per well) onto fibrinogen coated plates and incubated for 30 min at 37° C./5% CO2. Unbound cells were gently washed with TBS two times.

SMILES | pIC50
Cc1cc(C(=O)NCc2cccc(O)c2)ccc1C(=O)N[C@@H](CNC(=O)c1cccs1)C(=O)O [Example 323] | 7.59
Cc1cc(C(=O)NCc2cccc(O)c2)cc(Cl)c1C(=O)N[C@@H](CNC(=O)c1ccsc1)C(=O)O [Example 339, N-[2-chloro-4-[[[(3-hydroxyphenyl)methyl]amino]carbonyl]-6-methylbenzoyl]-3-[(thiophene-3-carbonyl)amino]-L-alanine] | 8.51
